Patent publication US7902234B2, “Thiadiazoline derivative” (Kyowa Hakko Kirin Co., Ltd., priority 2001, dated 2011)

Test system: HCT 116 cells
Assay: Antiproliferative activity in HCT 116 human colon cancer cells (XTT)
Type: cell-based
Details: 72 hours incubation with compound, XTT absorbance 490 nm minus 655 nm, read-out: GI50 (concentration of 50% proliferation inhibition)
Procedure: HCT 116 cells (ATCC No.: CCL-247) were placed on a 96-well microliter plate (Nunc, 167008) at a density of 1×10^3 cells/well. The plate was incubated in a 5% CO2 incubator at 37° C. for 24 hours, and then to the plate was added test compounds diluted stepwise to […] in total, and the plate was further incubated in a 5% CO2 incubator at 37° C. for 72 hours. To the culture medium, the XTT (sodium 3′-[1-(phenylaminocarbonyl)-3,4-tetrazolium)-bis(4-methoxy-6-nitro)benzenesulfonic acid hydrate) labeling mixture (Roche Diagnostics, 1465015) was dispensed in […] portions, then the plate was incubated in a 5% CO2 incubator at 37° C. for 1 hour, and the absorbance was measured at 490 nm and 655 nm with a microplate spectrophotometer (Bio-Rad, Model 550). The inhibitory activity against cell proliferation was shown as a concentration of 50% proliferation inhibition, GI50.
GI50 calculation method: The value (difference in absorbance) was calculated by subtracting the absorbance at 655 nm from the absorbance at 490 nm of each well. […]

Row | GI50 | SMILES
1 | 1000 nM | CC(=O)NC1=NN(C(C)=O)C(C)(c2ccccc2)S1 (centres unmarked) [Compound 1]
2 | 480 nM | CC(=O)N(C)C1=NN(C(C)=O)C(C)(c2ccccc2)S1 (centres unmarked) [Compound 7]
